From paper PMC10276154, “Development of the nonreceptor tyrosine kinase FER-targeting PROTACs as a potential strategy for antagonizing ovarian cancer cell motility and invasiveness” (The Journal of Biological Chemistry, 2023)

Molecular target: FER (Homo sapiens, UniProt P16591)
Assay: pY402-FER autophosphorylation immunoblot in HEK293FT cells transfected with pLV-FER, […] h
Assay type: cell-based

FER, sequence (P16591 whole entry): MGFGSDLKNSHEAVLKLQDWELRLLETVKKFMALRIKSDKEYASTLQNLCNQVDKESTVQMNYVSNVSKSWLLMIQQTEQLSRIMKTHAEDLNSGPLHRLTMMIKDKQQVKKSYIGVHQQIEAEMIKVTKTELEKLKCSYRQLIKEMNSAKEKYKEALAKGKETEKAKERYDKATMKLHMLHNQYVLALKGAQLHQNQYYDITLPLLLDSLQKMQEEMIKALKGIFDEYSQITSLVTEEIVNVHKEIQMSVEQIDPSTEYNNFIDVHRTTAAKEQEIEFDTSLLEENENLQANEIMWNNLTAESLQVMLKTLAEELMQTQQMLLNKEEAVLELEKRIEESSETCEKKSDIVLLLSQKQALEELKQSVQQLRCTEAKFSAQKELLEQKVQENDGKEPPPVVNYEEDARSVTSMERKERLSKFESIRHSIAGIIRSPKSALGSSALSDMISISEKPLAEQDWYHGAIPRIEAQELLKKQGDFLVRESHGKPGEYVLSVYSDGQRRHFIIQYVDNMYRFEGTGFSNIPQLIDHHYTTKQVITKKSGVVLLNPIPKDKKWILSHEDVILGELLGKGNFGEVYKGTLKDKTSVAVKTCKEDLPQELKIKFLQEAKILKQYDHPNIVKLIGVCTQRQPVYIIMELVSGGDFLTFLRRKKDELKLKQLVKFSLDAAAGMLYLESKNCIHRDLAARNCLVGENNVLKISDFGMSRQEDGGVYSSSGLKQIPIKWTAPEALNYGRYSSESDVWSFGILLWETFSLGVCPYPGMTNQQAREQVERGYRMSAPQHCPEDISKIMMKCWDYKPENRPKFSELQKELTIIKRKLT

IC50: 138 nM
SMILES: COc1cc(N2CCC(N3CCN(C)CC3)CC2)ccc1Nc1ncc(Cl)c(Nc2ccccc2P(C)(C)=O)n1 [brigatinib]
